The source of these data is US20120136011A1, “COMPOUNDS AND METHODS FOR SKIN REPAIR” (ALLERGAN, INC., priority 2010, published 2012).

In data set [1] the test system is Sprague-Dawley rats. The experiment in a line: Incisional skin wound study comparing Compound 1 and TGF-β3 (intradermal injection, then topical). The following applies: for number of neutrophils counted in three sections of H&E stained tissues: 3 days post-surgery, n=5, vehicle 60.6±30, not statistically significant; for macroscopic surface appearance of wound sites / abnormal regions (dense, red, fine parallel fibers) on Picrosirius red stained sections: 70 days post-surgery; for abnormal regions (dense, red, fine parallel fibers) on Picrosirius red stained sections: versus vehicle; for widths of the abnormal structured dermis regions, Masson trichrome / gap width in-between the normal fibrils, Picrosirius red / collagen fibril type at wound sites, Picrosirius red under polarized light: day 14; for widths of the abnormal structured dermis regions, Masson trichrome / size of residual scar regions, Masson trichrome: versus vehicle treated group, p<0.01-0.05; for gap width in-between the normal fibrils, Picrosirius red: versus vehicle-treated group, p<0.05; for collagen fibril type at wound sites, Picrosirius red under polarized light: yellow large bundles versus green type III collagen; for size of residual scar regions, Masson trichrome: day 70. Type of data set: in vivo. Here is the method: (§1) Incisional Skin Wound Model and Assessment. Sprague-Dawley rats at 180-200 gram were anesthetized with isoflourane. After shaving, a 2-cm long incision was made, reaching the deep fascia on the back skin of rats under sterile conditions. The wounds were immediately closed with 4-0 sutures. A 14 day pilot study was carried out. The animals were topically treated with vehicle or Compound 1 at 0.004% twice daily. The vehicle contained ethanol 30%, propylene glycol 12%, dipropylene glycol 5%, benzyl alcohol 5%, glycerol 3% and normal saline 45%. The wound was photographed daily; biopsy was performed at 2, 3, 7 and 14 days post-surgery for histopathology and molecular biology analysis.
A similar skin wound study was also performed comparing the effects of Compound 1 and TGF-β3. In this study, intradermal injections of Compound 1 at 0.004%, TGF-β3 at 100 ng/200 μl or vehicle were given right before closing the wounds. Afterward, TGF-β3 was injected two more times, on day 1 and 2, and Compound 1 and vehicle were topically applied twice a day for the duration of the study. The vehicle was PBS with 0.1% BSA and 4 mM HCl in a total volume of 200 μl for injection. Skin wounds were imaged on day 3, 7, 14, and 70.
(§2) The wound tissue was biopsied for histopathology on day 3, 14 and 70. To observe the skin wound, paraffin-embedded wound sections were made. Regular H&E staining was carried out in comparison with Masson trichrome and/or Picosirus red to visualize the collagen fibers. To monitor myofibroblasts in skin wound, the sections were immunohistochemically stained to identify alpha-smooth muscle actin. To assess wound appearance, all the scar photos were mixed together by the end of each study. The scar severity was scored on a scale of 0 to 10, with 0 being invisible, 1 the minimal and 10 the worst. Each scar was divided into 4 regions, separated by suture sites; each quarter was scored independently; the mean of the 4 part scores was recorded as the gross score of each wound.

The subject of data set [2] is human fetal skin fibroblasts (CRL-7129). Put plainly: Collagen type I production in cultured fetal skin fibroblasts (Western blot). In kind it is cell-based.
The subject of data set [3] is Sprague-Dawley rats. Put plainly: Incisional skin wound model, 14 day pilot study, topical treatment. In kind it is in vivo. Here is the method:
as §1, §2

In data set [4] the test system is human adult skin fibroblasts (CRL-7346). The experiment in a line: Collagen type I production in cultured adult skin fibroblasts (Western blot). In kind it is cell-based.
[5] abbreviates: vehicle 100%, 48 hours treatment.
The mark [6] stands for this setting: day 14, Masson Trichrome, versus vehicle.

`CC1(C)C(=O)[C@H](C/C=C\CCCC(=O)O)[C@@H](/C=C/[C@H](O)CCc2sc3ccccc3c2Cl)[C@@H]1O` [Compound 1]: in the data set with Sprague-Dawley rats [1], the “number of neutrophils counted in three sections of H&E stained tissues” value came out at 31.4±8; the “macroscopic surface appearance of wound sites” value is listed as “wound sites were not even detectable”; the “abnormal regions (dense, red, fine parallel fibers) on Picrosirius red stained sections” value is given as “largely absent”; the “widths of the abnormal structured dermis regions, Masson trichrome” value is listed as “significantly smaller”. In addition, in the data set with Sprague-Dawley rats [1], the “gap width in-between the normal fibrils, Picrosirius red” value is reported as “significantly narrower”; the “collagen fibril type at wound sites, Picrosirius red under polarized light” value is given as “large yellow-stained collagen bundles almost crossing over the entire wound sites”; the “size of residual scar regions, Masson trichrome” value is on record as “remarkably smaller”. In data set [2], the “collagen type-1 production (in words)” value is given as “upregulated”. Besides, the “collagen type-1 production relative to vehicle” value in data set [2] (setting [5]) stood at 200%. Besides, the “epidermal layer thickness and structure at wound site” value in the data set on Sprague-Dawley rats [3] (7 days post-skin incision, 0.004% topical twice daily) was “thickness close to the nearby normal epidermis”. Moreover, in the data set with Sprague-Dawley rats [3] (7 days post-skin incision, vehicle had epidermal hyperplasia), the “epidermal thickness of vehicle-treated skin relative to Compound 1 treated epidermis” value amounted to 3 times. In addition, the “gross skin scar appearance” value in the data set on Sprague-Dawley rats [3] (14 days post-surgery, versus vehicle-treated animals) is “smaller and softer skin scar”. Also, the “overall size of epidermal defects, vehicle-treated versus Compound 1 treated wounds” value in the data set with Sprague-Dawley rats [3] (day 3 post-surgery, 0.004% topical twice daily) is “two times larger for vehicle-treated wounds”. The “skin wound samples showing closed epidermis filled with keratinocytes” value with Sprague-Dawley rats [3] (day 3 post-surgery, 0.004% topical twice daily, vehicle 33%) was 80%. Also, in the data set with Sprague-Dawley rats [3] (day 3 samples, vehicle control 38±6.15/3 sections), the “number of myofibroblasts (α-SMA-positive cells)” value is recorded as 25.8±7.45 /3 sections. Besides, in the data set on Sprague-Dawley rats [3] (setting [6]), the “scar width (abnormal fiber belt) in the middle and bottom parts of scars” value is reported as “significantly reduced”; the “scar width at the superficial region” value was “only a tendency to decrease”. Moreover, the “neutrophil (polymorphonuclear cell) infiltration at wound sites” value in the data set on Sprague-Dawley rats [3] (days 2 and 3 post-surgery, versus vehicle) is on record as “significantly reduced”. For the same molecule, the “collagen type-1 production (in words)” value in data set [4] is “upregulated”. The “collagen type-1 production relative to vehicle” value in data set [4] (setting [5]) is given as 128%.
Consider “TGF-β3: a leading treatment for wounds, reportedly reducing skin scar in both animals and human”, for which, in the data set with Sprague-Dawley rats [1], the “number of neutrophils counted in three sections of H&E stained tissues” value is 53.8±17; the “macroscopic surface appearance of wound sites” value is listed as “still showed traces of wounds”; the “abnormal regions (dense, red, fine parallel fibers) on Picrosirius red stained sections” value is on record as “largely absent”; the “widths of the abnormal structured dermis regions, Masson trichrome” value was “significantly smaller”. In the data set on Sprague-Dawley rats [1], the “gap width in-between the normal fibrils, Picrosirius red” value is “significantly narrower”; the “collagen fibril type at wound sites, Picrosirius red under polarized light” value is reported as “some green fibers at the bottom of the wounds”; the “size of residual scar regions, Masson trichrome” value is given as “remarkably smaller”.
